Results as given in PMC11681614, “A crucial active site network of titratable residues guides catalysis and NAD ^+ binding in human succinic semialdehyde dehydrogenase” (Protein Science : A Publication of the Protein Society, 2024).
Numbering of substitutions follows the chain as printed.

Tests used:
[1] = molecular target: T1, hSSADH (human succinic semialdehyde dehydrogenase) (Homo sapiens, UniProt P51649); assay: intrinsic fluorescence quenching (ex […] nm, em […] nm), hyperbolic fit; format: binding
T1 construct: gene ALDH5A1; purified recombinant homotetramer, expressed and purified as in Didiasova et al. 2024
T1 sequence (P51649 48-535): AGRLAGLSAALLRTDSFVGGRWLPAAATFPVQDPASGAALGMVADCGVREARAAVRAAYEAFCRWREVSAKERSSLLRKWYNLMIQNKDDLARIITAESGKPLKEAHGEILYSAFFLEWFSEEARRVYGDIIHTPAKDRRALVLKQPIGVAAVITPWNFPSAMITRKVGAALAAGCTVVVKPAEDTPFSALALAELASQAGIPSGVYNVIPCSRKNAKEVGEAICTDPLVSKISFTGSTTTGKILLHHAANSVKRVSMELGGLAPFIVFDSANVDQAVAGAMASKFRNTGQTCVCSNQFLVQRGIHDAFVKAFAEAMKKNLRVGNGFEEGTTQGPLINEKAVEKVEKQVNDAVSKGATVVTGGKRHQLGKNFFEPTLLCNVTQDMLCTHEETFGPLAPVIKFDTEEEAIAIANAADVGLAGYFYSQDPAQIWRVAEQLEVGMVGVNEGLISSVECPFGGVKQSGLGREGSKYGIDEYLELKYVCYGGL

[2] = molecular target: T2, hSSADH (human succinic semialdehyde dehydrogenase) (Homo sapiens, UniProt P51649, K214A); assay: as above; format: binding; settings: read-out: K DNAD+
T2 construct: gene ALDH5A1; purified recombinant homotetramer, expressed and purified as in Didiasova et al. 2024
T2 sequence (P51649 48-535 K214A): T1 sequence (P51649 48-535) with K167A

[3] = molecular target: T3, hSSADH (human succinic semialdehyde dehydrogenase) (Homo sapiens, UniProt P51649, E306Q); assay: as above; format: binding; settings: read-out: K DNAD+
T3 construct: gene ALDH5A1; purified recombinant homotetramer, expressed and purified as in Didiasova et al. 2024
T3 sequence (P51649 48-535 E306Q): T1 sequence (P51649 48-535) with E259Q

[4] = molecular target: T1, hSSADH (human succinic semialdehyde dehydrogenase); assay: initial rates, NADH fluorescence (ex […], em […] nm), global fit to Equation ([…]); format: biochemical; settings: partial non-competitive substrate inhibition, co-substrate NAD+, pH 8, potassium phosphate
[5] = molecular target: T1, hSSADH (human succinic semialdehyde dehydrogenase); assay: product inhibition, NADH […], replots of slopes and intercepts; format: biochemical
purified protein [6] = substrate: O=CCCC(=O)O; assay: purified protein; format: biochemical, Homo sapiens; settings: co-substrate NAD+, pH 8, 100 mM potassium phosphate, 14°C, ordered bi-bi, partial substrate inhibition fit
purified protein [7] = substrate: NC(=O)c1ccc[n+]([C@@H]2O[C@H](COP(=O)([O-])OP(=O)(O)OC[C@H]3O[C@@H](n4cnc5c(N)ncnc54)[C@H](O)[C@@H]3O)[C@@H](O)[C@H]2O)c1; assay: purified protein; format: biochemical, Homo sapiens; settings: co-substrate SSA, pH 8, 100 mM potassium phosphate, 14°C, ordered bi-bi, partial substrate inhibition fit, varied: cofactor
[8] = molecular target: the molecule itself; assay: not stated; purified recombinant hSSADH; the experiment on the oligomeric state is in Data S1 (not shown)

## NC(=O)c1ccc[n+]([C@@H]2O[C@H](COP(=O)([O-])OP(=O)(O)OC[C@H]3O[C@@H](n4cnc5c(N)ncnc54)[C@H](O)[C@@H]3O)[C@@H](O)[C@H]2O)c1 [NAD^+]
[1]
  Kd: 4.5 ± 0.8 µM
[2]
  Kd: 2.5 ± 0.2 µM
[3]
  Kd: 4.3 ± 0.4 µM

## O=CCCC(=O)O [SSA]
[4]
  From Equation (5) (14°C): 13 ± 3 µM

## NC(=O)C1=CN([C@@H]2O[C@H](COP(=O)(O)OP(=O)(O)OC[C@H]3O[C@@H](n4cnc5c(N)ncnc54)[C@H](O)[C@@H]3O)[C@@H](O)[C@H]2O)C=CC1 [NADH]
[5]
  Ki: 15 ± 2 µM

B1: hSSADH (human succinic semialdehyde dehydrogenase) (Homo sapiens) (protein)
chain: T1 sequence (P51649 48-535)
notes: purified recombinant homotetramer, expressed and purified as in Didiasova et al. 2024
Purified protein [6]
  Km: 1.2 ± 0.2 µM
  kcat: 26 ± 2 s⁻¹
Purified protein [7]
  Km: 31 ± 5 µM
  kcat: 26 ± 2 s⁻¹

B2: Human succinic semialdehyde dehydrogenase (enzyme)
chain: GRLAGLSAALLRTDSFVGGRWLPAAATFPVQDPASGAALGMVADCGVREARAAVRAAYEAFCRWREVSAKERSSLLRKWYNLMIQNKDDLARIITAESGKPLKEAHGEILYSAFFLEWFSEEARRVYGDIIHTPAKDRRALVLKQPIGVAAVITPWNFPSAMITRKVGAALAAGCTVVVKPAEDTPFSALALAELASQAGIPSGVYNVIPCSRKNAKEVGEAICTDPLVSKISFTGSTTTGKILLHHAANSVKRVSMELGGLAPFIVFDSANVDQAVAGAMASKFRNTGQTCVCSNQFLVQRGIHDAFVKAFAEAMKKNLRVGNGFEEGTTQGPLINEKAVEKVEKQVNDAVSKGATVVTGGKRHQLGKNFFEPTLLCNVTQDMLCTHEETFGPLAPVIKFDTEEEAIAIANAADVGLAGYFYSQDPAQIWRVAEQLEVGMVGVNEGLISSVECPFGGVKQSGLGREGSKYGIDEYLELKYVCYGGL
notes: Human succinic semialdehyde dehydrogenase (EC 1.2.1.24), gene ALDH5A1; this is surmised; also called hSSADH; WT hSSADH; source: recombinant, expressed and purified as described (Didiasova et al. 2024)
[8]
  stoichiometry N: 4
